In test [1] the target is Platelet-derived growth factor receptor beta (Homo sapiens, UniProt P09619). The experiment in a line: Selectivity interaction (Kinase panel (Z-LYTE Assay)) EUB0001632a PDGFRB. Particulars: at 10 µM.
Test [2] deals with SRSF protein kinase 3 (Homo sapiens) (UniProt Q9UPE1). The experiment in a line: Selectivity interaction (Kinase panel (Z-LYTE Assay)) EUB0001632a SRPK3. The conditions noted are these: at 10 µM.
In test [3] the target is T1, Dual specificity tyrosine-phosphorylation-regulated kinase 2 (Homo sapiens) (UniProt Q92630).
T1 sequence (whole entry): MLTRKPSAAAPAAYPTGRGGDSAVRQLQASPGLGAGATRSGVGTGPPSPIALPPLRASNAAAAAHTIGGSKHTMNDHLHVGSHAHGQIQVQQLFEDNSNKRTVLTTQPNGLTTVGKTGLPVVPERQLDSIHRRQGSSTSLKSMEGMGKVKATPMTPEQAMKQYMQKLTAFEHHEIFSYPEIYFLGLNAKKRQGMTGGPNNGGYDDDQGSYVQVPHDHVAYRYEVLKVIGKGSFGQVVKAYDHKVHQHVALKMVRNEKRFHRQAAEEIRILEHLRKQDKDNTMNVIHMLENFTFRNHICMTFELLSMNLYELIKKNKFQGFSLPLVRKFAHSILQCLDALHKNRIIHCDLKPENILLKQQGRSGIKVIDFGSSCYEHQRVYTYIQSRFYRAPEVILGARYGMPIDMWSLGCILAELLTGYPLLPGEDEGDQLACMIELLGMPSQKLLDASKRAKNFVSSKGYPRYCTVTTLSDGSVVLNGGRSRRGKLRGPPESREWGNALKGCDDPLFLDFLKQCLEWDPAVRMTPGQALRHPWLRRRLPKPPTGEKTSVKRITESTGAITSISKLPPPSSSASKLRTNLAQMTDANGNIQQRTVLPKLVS
The experiment in a line: Selectivity interaction (KinomeScan (DiscoverX)) EUB0000655a DYRK2. The conditions noted are these: at 10 µM.

Test [4] deals with T2, Dual specificity mitogen-activated protein kinase kinase 7 (Homo sapiens) (UniProt O14733).
T2 sequence (whole entry): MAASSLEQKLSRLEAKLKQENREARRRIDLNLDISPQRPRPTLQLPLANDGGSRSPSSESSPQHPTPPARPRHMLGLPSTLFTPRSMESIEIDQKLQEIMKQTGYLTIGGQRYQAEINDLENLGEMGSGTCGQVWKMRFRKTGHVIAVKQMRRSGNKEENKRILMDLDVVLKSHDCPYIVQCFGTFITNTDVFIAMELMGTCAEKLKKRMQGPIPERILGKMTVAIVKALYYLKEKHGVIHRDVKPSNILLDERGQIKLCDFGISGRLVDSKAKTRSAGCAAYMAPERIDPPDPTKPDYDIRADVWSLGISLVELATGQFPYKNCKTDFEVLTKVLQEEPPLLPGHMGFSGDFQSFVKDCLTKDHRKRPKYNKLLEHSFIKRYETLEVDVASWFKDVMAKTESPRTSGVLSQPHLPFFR
The experiment in a line: Selectivity interaction (KinomeScan (DiscoverX)) EUB0001079a MAP2K7. Particulars: at 1 µM.

Test [5] deals with Ribosomal protein S6 kinase alpha-5 (Homo sapiens) (UniProt O75582). The experiment in a line: Selectivity interaction (KinomeScan (DiscoverX)) EUB0001619a RPS6KA5. Particulars: at 1 µM.
Ribosomal protein S6 kinase alpha-5 (Homo sapiens), sequence (O75582 whole entry, looked up): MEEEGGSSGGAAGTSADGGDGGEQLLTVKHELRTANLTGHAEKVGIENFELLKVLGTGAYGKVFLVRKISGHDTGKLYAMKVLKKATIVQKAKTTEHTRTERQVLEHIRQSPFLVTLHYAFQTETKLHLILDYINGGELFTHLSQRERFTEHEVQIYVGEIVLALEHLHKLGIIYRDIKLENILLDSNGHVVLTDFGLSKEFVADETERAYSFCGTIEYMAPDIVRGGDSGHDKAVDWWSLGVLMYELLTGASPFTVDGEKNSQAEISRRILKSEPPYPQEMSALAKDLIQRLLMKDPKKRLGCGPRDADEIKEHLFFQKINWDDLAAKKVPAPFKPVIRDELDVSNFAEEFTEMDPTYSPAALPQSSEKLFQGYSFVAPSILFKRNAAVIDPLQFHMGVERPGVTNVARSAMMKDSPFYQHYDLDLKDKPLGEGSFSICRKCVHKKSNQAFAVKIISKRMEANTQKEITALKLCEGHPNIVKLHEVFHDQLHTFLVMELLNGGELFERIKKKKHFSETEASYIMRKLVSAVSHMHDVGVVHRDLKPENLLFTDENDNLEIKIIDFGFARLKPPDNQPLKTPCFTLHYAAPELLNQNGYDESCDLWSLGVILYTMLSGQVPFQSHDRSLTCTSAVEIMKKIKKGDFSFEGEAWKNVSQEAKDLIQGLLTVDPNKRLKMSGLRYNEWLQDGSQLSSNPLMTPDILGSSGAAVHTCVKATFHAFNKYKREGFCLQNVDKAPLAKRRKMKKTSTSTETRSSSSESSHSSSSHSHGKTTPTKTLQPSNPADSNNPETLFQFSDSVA
For test [6], the target named is MAP kinase-activated protein kinase 3 (Homo sapiens) (UniProt Q16644). The experiment in a line: Selectivity interaction (Kinase screening (Nanosyn)) EUB0000604a MAPKAPK3.
MAP kinase-activated protein kinase 3 (Homo sapiens), sequence (Q16644 whole entry, looked up): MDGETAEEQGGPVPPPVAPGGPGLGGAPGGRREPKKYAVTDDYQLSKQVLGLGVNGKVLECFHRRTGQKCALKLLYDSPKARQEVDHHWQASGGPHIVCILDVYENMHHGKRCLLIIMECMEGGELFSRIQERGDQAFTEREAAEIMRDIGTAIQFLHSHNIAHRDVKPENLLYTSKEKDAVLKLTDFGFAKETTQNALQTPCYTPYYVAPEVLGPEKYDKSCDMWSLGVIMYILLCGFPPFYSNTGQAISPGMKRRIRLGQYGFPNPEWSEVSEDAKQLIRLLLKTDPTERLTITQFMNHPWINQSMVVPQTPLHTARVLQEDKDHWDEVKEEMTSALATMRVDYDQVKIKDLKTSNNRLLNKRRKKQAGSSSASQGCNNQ
The target of test [7] is T3, Serine/threonine-protein kinase 36 (Homo sapiens) (UniProt Q9NRP7).
T3 sequence (whole entry): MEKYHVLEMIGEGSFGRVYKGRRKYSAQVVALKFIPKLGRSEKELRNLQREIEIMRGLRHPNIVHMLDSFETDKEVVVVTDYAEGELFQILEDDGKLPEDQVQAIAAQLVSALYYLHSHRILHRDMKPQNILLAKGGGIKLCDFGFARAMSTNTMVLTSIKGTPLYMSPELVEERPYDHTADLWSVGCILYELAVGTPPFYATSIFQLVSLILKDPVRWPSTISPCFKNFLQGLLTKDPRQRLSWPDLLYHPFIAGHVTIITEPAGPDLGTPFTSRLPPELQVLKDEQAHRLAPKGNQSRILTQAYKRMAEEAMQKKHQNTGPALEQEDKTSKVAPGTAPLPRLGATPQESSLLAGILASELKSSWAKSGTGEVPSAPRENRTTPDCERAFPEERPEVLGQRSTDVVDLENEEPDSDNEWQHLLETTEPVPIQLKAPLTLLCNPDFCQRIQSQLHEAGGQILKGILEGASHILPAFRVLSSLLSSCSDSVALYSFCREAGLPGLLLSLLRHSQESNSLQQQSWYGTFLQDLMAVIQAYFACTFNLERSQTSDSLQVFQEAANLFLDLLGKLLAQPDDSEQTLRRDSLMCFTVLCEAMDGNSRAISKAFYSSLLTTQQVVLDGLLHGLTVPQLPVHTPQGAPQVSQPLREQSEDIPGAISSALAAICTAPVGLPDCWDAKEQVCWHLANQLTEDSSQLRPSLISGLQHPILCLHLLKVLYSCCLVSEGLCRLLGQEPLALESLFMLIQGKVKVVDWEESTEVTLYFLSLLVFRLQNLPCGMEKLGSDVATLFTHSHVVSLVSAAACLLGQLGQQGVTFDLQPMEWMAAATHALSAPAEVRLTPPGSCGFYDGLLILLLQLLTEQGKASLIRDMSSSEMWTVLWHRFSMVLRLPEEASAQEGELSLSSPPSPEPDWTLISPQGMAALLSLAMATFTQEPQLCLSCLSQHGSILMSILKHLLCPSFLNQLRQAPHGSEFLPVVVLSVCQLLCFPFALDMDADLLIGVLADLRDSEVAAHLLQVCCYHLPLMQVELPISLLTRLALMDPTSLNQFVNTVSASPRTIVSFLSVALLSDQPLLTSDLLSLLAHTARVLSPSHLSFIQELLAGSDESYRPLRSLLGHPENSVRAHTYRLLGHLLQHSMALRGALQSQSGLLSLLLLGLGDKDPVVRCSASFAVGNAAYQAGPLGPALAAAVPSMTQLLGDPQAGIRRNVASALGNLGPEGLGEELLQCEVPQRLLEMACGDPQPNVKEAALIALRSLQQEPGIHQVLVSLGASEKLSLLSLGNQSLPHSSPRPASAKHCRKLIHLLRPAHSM
The experiment in a line: Selectivity interaction (KinomeScan (DiscoverX)) EUB0000595a STK36. Particulars: at 10 µM.

Platelet-derived growth factor receptor beta, sequence (P09619 whole entry): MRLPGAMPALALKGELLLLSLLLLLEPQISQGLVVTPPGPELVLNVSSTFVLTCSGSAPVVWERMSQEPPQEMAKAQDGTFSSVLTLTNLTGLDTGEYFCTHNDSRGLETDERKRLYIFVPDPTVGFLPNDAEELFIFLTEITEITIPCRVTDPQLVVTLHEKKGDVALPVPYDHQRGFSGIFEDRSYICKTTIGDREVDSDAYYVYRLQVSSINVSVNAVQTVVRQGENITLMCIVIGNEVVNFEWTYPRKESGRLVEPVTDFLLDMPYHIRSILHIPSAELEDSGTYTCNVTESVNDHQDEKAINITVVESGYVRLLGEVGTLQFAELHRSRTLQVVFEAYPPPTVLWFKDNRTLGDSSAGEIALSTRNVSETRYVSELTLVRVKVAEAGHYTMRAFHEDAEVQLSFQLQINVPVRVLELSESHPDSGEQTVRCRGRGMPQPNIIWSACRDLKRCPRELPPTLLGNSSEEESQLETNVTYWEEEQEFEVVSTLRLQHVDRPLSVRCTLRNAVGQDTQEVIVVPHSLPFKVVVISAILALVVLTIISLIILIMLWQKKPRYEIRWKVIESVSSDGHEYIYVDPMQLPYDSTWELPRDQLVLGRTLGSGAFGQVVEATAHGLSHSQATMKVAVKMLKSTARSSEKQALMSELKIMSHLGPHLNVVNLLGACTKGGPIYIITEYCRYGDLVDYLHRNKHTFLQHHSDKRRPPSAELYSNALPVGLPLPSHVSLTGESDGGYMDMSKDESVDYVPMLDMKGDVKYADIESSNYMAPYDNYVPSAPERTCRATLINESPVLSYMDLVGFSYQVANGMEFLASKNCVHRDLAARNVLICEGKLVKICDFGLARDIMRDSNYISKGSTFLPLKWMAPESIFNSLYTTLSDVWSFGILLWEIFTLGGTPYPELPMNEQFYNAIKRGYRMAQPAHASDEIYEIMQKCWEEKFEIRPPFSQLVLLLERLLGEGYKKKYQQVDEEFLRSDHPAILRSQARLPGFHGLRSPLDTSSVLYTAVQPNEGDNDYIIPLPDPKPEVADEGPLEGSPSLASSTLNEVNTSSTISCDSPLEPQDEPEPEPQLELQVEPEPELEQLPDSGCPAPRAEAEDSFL
SRSF protein kinase 3 (Homo sapiens), sequence (Q9UPE1 whole entry): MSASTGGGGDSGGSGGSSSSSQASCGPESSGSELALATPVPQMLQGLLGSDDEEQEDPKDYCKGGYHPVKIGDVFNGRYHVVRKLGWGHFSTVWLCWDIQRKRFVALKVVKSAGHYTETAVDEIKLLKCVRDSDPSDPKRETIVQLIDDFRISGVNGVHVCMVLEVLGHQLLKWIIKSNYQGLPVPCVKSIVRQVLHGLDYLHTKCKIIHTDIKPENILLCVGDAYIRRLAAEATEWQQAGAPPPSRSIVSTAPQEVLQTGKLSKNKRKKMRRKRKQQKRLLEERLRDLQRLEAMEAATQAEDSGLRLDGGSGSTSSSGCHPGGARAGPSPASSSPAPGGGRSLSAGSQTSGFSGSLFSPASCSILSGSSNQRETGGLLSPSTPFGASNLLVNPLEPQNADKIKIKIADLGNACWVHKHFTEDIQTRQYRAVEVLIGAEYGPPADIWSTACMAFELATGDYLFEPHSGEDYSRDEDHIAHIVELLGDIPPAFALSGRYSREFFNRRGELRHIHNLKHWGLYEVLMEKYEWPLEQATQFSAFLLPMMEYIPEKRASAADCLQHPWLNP

Take `Cn1cc(-n2cnc3c(NCc4nc5cc(Cl)c(Cl)cc5[nH]4)nc(N4CCOCC4)nc32)cn1`: the % of control in test [1] is 12.7%; in test [2] it was -1.05%.

`CN(C)CCOc1ccc(-c2nc(-c3ccncc3)c(-c3ccc4c(c3)CC/C4=N\O)[nH]2)cc1`: the % of control in test [3] was determined as 98%.

Consider `Nc1cnc(N2CCc3cc(S(=O)(=O)Nc4c(F)cc(Cl)cc4F)cc(N4CCCC4=O)c32)nc1` [TP-020n], for which the % of control in test [4] came out at 100%.

`N#Cc1cccc(-c2c[nH]c3ncnc(N4CCOCC4)c23)c1`: the % of control in test [5] came out at 74%.

With `Cc1cnc(Nc2ccc(F)cc2Cl)nc1-c1c[nH]c(C(=O)N[C@H](CO)c2cccc(Cl)c2)c1`, in test [6], the % of inhibition worked out at 5%.

For the compound `COCC(=O)NC/C=C/c1ccc2ncnc(Nc3ccc(Oc4ccc(C)nc4)c(C)c3)c2c1` [CP-724714], the % of control in test [7] was 100%.

These data come from ChEMBL document CHEMBL5465560, “Selectivity Literature for EUbOPEN Chemogenomic Library” (2024).
